Results from US7118895B2, “Process for producing aglycon by using diglycosidase and flavor-improved food containing the aglycon and converting agent to be used in the process” (Amano Enzyme Inc., priority 2000, dated 2006).

Test system: Crude diglycosidase
Assay: Examination of pH in the conversion into isoflavone aglycons by diglycosidase using soybean materials
Assay type: biochemical, Penicillium multicolor IAM7153
Set-up: Decomposition efficiency of genistin family in soymilk / Decomposition efficiency of genistin family in defatted soybean / Decomposition efficiency of daidzin family in defatted soybean: concentration or dose not given beside the values
Conditions: for Decomposition efficiency of genistin family in roasted soy flour: 55° C.
In short: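 HPLC detection of isoflavone glycosides and aglycons after ethanol quench at 0, 1, 3 and 6 h. Reactions ran at 55° C over pH 2–11, with crude diglycosidase (enzyme solution at 1.88 AU/mL) added to suspended roasted soy flour, soymilk, defatted soybean or concentrated soy protein.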

[1] = pH4.8, heat treatment of enzyme: no, reaction time 0 h
[2] = pH4.8, heat treatment of enzyme: no, reaction time 1 h
[3] = pH4.8, heat treatment of enzyme: no, reaction time 3 h
[4] = pH4.8, heat treatment of enzyme: no, reaction time 6 h
[5] = pH4.8, heat treatment of enzyme: yes, reaction time 6 h
[6] = pH6.6, heat treatment of enzyme: no, reaction time 0 h
[7] = pH6.6, heat treatment of enzyme: no, reaction time 1 h
[8] = pH6.6, heat treatment of enzyme: no, reaction time 3 h
[9] = pH6.6, heat treatment of enzyme: no, reaction time 6 h
[10] = pH6.6, heat treatment of enzyme: yes, reaction time 6 h

- Decomposition efficiency of genistin family in concentrated soybean protein (pH1.6, heat treatment of enzyme: no, reaction time 0 h): 49.7%
- Decomposition efficiency of genistin family in concentrated soybean protein (pH1.6, heat treatment of enzyme: no, reaction time 1 h): 50.2%
- Decomposition efficiency of genistin family in concentrated soybean protein (pH1.6, heat treatment of enzyme: no, reaction time 3 h): 51.6%
- Decomposition efficiency of genistin family in concentrated soybean protein (pH1.6, heat treatment of enzyme: no, reaction time 6 h): 53.3%
- Decomposition efficiency of genistin family in concentrated soybean protein (pH1.6, heat treatment of enzyme: yes, reaction time 6 h): 54.4%
- Decomposition efficiency of genistin family in roasted soy flour (pH2, heat treatment of enzyme no, reaction time 0 h): 50.0
- Decomposition efficiency of genistin family in roasted soy flour (pH2, heat treatment of enzyme no, reaction time 1 h): 49.7
- Decomposition efficiency of genistin family in roasted soy flour (pH2, heat treatment of enzyme no, reaction time 3 h): 50.7
- Decomposition efficiency of genistin family in roasted soy flour (pH2, heat treatment of enzyme no, reaction time 6 h): 52.7
- Decomposition efficiency of genistin family in roasted soy flour (pH2, heat treatment of enzyme yes, reaction time 6 h): 52.8
- Decomposition efficiency of genistin family in soymilk (pH2.3, heat treatment of enzyme: no, reaction time 0 h): 31.5%
- Decomposition efficiency of genistin family in soymilk (pH2.3, heat treatment of enzyme: no, reaction time 1 h): not detected
- Decomposition efficiency of genistin family in soymilk (pH2.3, heat treatment of enzyme: no, reaction time 3 h): not detected
- Decomposition efficiency of genistin family in soymilk (pH2.3, heat treatment of enzyme: no, reaction time 6 h): not detected
- Decomposition efficiency of genistin family in soymilk (pH2.3, heat treatment of enzyme: yes, reaction time 6 h): 35.5%
- Decomposition efficiency of genistin family in defatted soybean (pH2.6, heat treatment of enzyme: no, reaction time 0 h): 42.0%
- Decomposition efficiency of genistin family in defatted soybean (pH2.6, heat treatment of enzyme: no, reaction time 1 h): 36.3%
- Decomposition efficiency of genistin family in defatted soybean (pH2.6, heat treatment of enzyme: no, reaction time 3 h): 20.3%
- Decomposition efficiency of genistin family in defatted soybean (pH2.6, heat treatment of enzyme: no, reaction time 6 h): 20.1%
- Decomposition efficiency of genistin family in defatted soybean (pH2.6, heat treatment of enzyme: yes, reaction time 6 h): 44.3%
- Decomposition efficiency of genistin family in concentrated soybean protein (pH2.7, heat treatment of enzyme: no, reaction time 0 h): 49.7%
- Decomposition efficiency of genistin family in concentrated soybean protein (pH2.7, heat treatment of enzyme: no, reaction time 1 h): 23.1%
- Decomposition efficiency of genistin family in concentrated soybean protein (pH2.7, heat treatment of enzyme: no, reaction time 3 h): 22.1%
- Decomposition efficiency of genistin family in concentrated soybean protein (pH2.7, heat treatment of enzyme: no, reaction time 6 h): 17.5%
- Decomposition efficiency of genistin family in concentrated soybean protein (pH2.7, heat treatment of enzyme: yes, reaction time 6 h): 50.5%
- Decomposition efficiency of genistin family in roasted soy flour (pH3, heat treatment of enzyme no, reaction time 0 h): 50.0
- Decomposition efficiency of genistin family in roasted soy flour (pH3, heat treatment of enzyme no, reaction time 1 h): 3.4
- Decomposition efficiency of genistin family in roasted soy flour (pH3, heat treatment of enzyme no, reaction time 3 h): not detected
- Decomposition efficiency of genistin family in roasted soy flour (pH3, heat treatment of enzyme no, reaction time 6 h): not detected
- Decomposition efficiency of genistin family in roasted soy flour (pH3, heat treatment of enzyme yes, reaction time 6 h): 49.9
- Decomposition efficiency of genistin family in defatted soybean (pH3.4, heat treatment of enzyme: no, reaction time 0 h): 42.0%
- Decomposition efficiency of genistin family in defatted soybean (pH3.4, heat treatment of enzyme: no, reaction time 1 h): not detected
- Decomposition efficiency of genistin family in defatted soybean (pH3.4, heat treatment of enzyme: no, reaction time 3 h): not detected
- Decomposition efficiency of genistin family in defatted soybean (pH3.4, heat treatment of enzyme: no, reaction time 6 h): not detected
- Decomposition efficiency of genistin family in defatted soybean (pH3.4, heat treatment of enzyme: yes, reaction time 6 h): 44.3%
- Decomposition efficiency of genistin family in soymilk (pH3.5, heat treatment of enzyme: no, reaction time 0 h): 31.5%
- Decomposition efficiency of genistin family in soymilk (pH3.5, heat treatment of enzyme: no, reaction time 1 h): not detected
- Decomposition efficiency of genistin family in soymilk (pH3.5, heat treatment of enzyme: no, reaction time 3 h): not detected
- Decomposition efficiency of genistin family in soymilk (pH3.5, heat treatment of enzyme: no, reaction time 6 h): not detected
- Decomposition efficiency of genistin family in soymilk (pH3.5, heat treatment of enzyme: yes, reaction time 6 h): 37.0%
- Decomposition efficiency of genistin family in concentrated soybean protein (pH3.7, heat treatment of enzyme: no, reaction time 0 h): 50.7%
- Decomposition efficiency of genistin family in concentrated soybean protein (pH3.7, heat treatment of enzyme: no, reaction time 1 h): not detected
- Decomposition efficiency of genistin family in concentrated soybean protein (pH3.7, heat treatment of enzyme: no, reaction time 3 h): not detected
- Decomposition efficiency of genistin family in concentrated soybean protein (pH3.7, heat treatment of enzyme: no, reaction time 6 h): not detected
- Decomposition efficiency of genistin family in concentrated soybean protein (pH3.7, heat treatment of enzyme: yes, reaction time 6 h): 50.6%
- Decomposition efficiency of genistin family in roasted soy flour (pH4, heat treatment of enzyme no, reaction time 0 h): 49.9
- Decomposition efficiency of genistin family in roasted soy flour (pH4, heat treatment of enzyme no, reaction time 1 h): not detected
- Decomposition efficiency of genistin family in roasted soy flour (pH4, heat treatment of enzyme no, reaction time 3 h): not detected
- Decomposition efficiency of genistin family in roasted soy flour (pH4, heat treatment of enzyme no, reaction time 6 h): not detected
- Decomposition efficiency of genistin family in roasted soy flour (pH4, heat treatment of enzyme yes, reaction time 6 h): 50.2
- Decomposition efficiency of genistin family in defatted soybean [1]: 40.5%
- Decomposition efficiency of genistin family in soymilk [1]: 31.7%
- Decomposition efficiency of genistin family in defatted soybean [2]: not detected
- Decomposition efficiency of genistin family in soymilk [2]: not detected
- Decomposition efficiency of genistin family in defatted soybean [3]: not detected
- Decomposition efficiency of genistin family in soymilk [3]: not detected
- Decomposition efficiency of genistin family in defatted soybean [4]: not detected
- Decomposition efficiency of genistin family in soymilk [4]: not detected
- Decomposition efficiency of genistin family in defatted soybean [5]: 31.8%
- Decomposition efficiency of genistin family in soymilk [5]: 37.8%
- Decomposition efficiency of genistin family in roasted soy flour (pH5, heat treatment of enzyme no, reaction time 0 h): 49.9
- Decomposition efficiency of genistin family in roasted soy flour (pH5, heat treatment of enzyme no, reaction time 1 h): not detected
- Decomposition efficiency of genistin family in roasted soy flour (pH5, heat treatment of enzyme no, reaction time 3 h): not detected
- Decomposition efficiency of genistin family in roasted soy flour (pH5, heat treatment of enzyme no, reaction time 6 h): not detected
- Decomposition efficiency of genistin family in roasted soy flour (pH5, heat treatment of enzyme yes, reaction time 6 h): 52.6
- Decomposition efficiency of genistin family in concentrated soybean protein (pH5.1, heat treatment of enzyme: no, reaction time 0 h): 50.7%
- Decomposition efficiency of genistin family in concentrated soybean protein (pH5.1, heat treatment of enzyme: no, reaction time 1 h): not detected
- Decomposition efficiency of genistin family in concentrated soybean protein (pH5.1, heat treatment of enzyme: no, reaction time 3 h): not detected
- Decomposition efficiency of genistin family in concentrated soybean protein (pH5.1, heat treatment of enzyme: no, reaction time 6 h): not detected
- Decomposition efficiency of genistin family in concentrated soybean protein (pH5.1, heat treatment of enzyme: yes, reaction time 6 h): 51.4%
- Decomposition efficiency of genistin family in defatted soybean (pH5.4, heat treatment of enzyme: no, reaction time 0 h): 40.5%
- Decomposition efficiency of genistin family in defatted soybean (pH5.4, heat treatment of enzyme: no, reaction time 1 h): not detected
- Decomposition efficiency of genistin family in defatted soybean (pH5.4, heat treatment of enzyme: no, reaction time 3 h): not detected
- Decomposition efficiency of genistin family in defatted soybean (pH5.4, heat treatment of enzyme: no, reaction time 6 h): not detected
- Decomposition efficiency of genistin family in defatted soybean (pH5.4, heat treatment of enzyme: yes, reaction time 6 h): 6.2%
- Decomposition efficiency of genistin family in soymilk (pH6.2, heat treatment of enzyme: no, reaction time 0 h): 31.7%
- Decomposition efficiency of genistin family in soymilk (pH6.2, heat treatment of enzyme: no, reaction time 1 h): not detected
- Decomposition efficiency of genistin family in soymilk (pH6.2, heat treatment of enzyme: no, reaction time 3 h): not detected
- Decomposition efficiency of genistin family in soymilk (pH6.2, heat treatment of enzyme: no, reaction time 6 h): not detected
- Decomposition efficiency of genistin family in soymilk (pH6.2, heat treatment of enzyme: yes, reaction time 6 h): 38.3%
- Decomposition efficiency of genistin family in roasted soy flour (pH6.5, heat treatment of enzyme no, reaction time 0 h): 49.4
- Decomposition efficiency of genistin family in roasted soy flour (pH6.5, heat treatment of enzyme no, reaction time 1 h): not detected
- Decomposition efficiency of genistin family in roasted soy flour (pH6.5, heat treatment of enzyme no, reaction time 3 h): not detected
- Decomposition efficiency of genistin family in roasted soy flour (pH6.5, heat treatment of enzyme no, reaction time 6 h): not detected
- Decomposition efficiency of genistin family in roasted soy flour (pH6.5, heat treatment of enzyme yes, reaction time 6 h): 54.8
- Decomposition efficiency of genistin family in concentrated soybean protein [6]: 50.4%
- Decomposition efficiency of genistin family in defatted soybean [6]: 39.2%
- Decomposition efficiency of genistin family in concentrated soybean protein [7]: 13.9%
- Decomposition efficiency of genistin family in defatted soybean [7]: not detected
- Decomposition efficiency of genistin family in concentrated soybean protein [8]: 3.8%
- Decomposition efficiency of genistin family in defatted soybean [8]: not detected
- Decomposition efficiency of genistin family in concentrated soybean protein [9]: 1.7%
- Decomposition efficiency of genistin family in defatted soybean [9]: not detected
- Decomposition efficiency of genistin family in concentrated soybean protein [10]: 53.2%
- Decomposition efficiency of genistin family in defatted soybean [10]: 7.7%
- Decomposition efficiency of genistin family in soymilk (pH7.2, heat treatment of enzyme: no, reaction time 0 h): 31.2%
- Decomposition efficiency of genistin family in soymilk (pH7.2, heat treatment of enzyme: no, reaction time 1 h): not detected
- Decomposition efficiency of genistin family in soymilk (pH7.2, heat treatment of enzyme: no, reaction time 3 h): not detected
- Decomposition efficiency of genistin family in soymilk (pH7.2, heat treatment of enzyme: no, reaction time 6 h): not detected
- Decomposition efficiency of genistin family in soymilk (pH7.2, heat treatment of enzyme: yes, reaction time 6 h): 38.9%
- Decomposition efficiency of genistin family in defatted soybean (pH7.8, heat treatment of enzyme: no, reaction time 0 h): 40.4%
- Decomposition efficiency of genistin family in defatted soybean (pH7.8, heat treatment of enzyme: no, reaction time 1 h): 15.7%
- Decomposition efficiency of genistin family in defatted soybean (pH7.8, heat treatment of enzyme: no, reaction time 3 h): 12.3%
- Decomposition efficiency of genistin family in defatted soybean (pH7.8, heat treatment of enzyme: no, reaction time 6 h): 11.4%
- Decomposition efficiency of genistin family in defatted soybean (pH7.8, heat treatment of enzyme: yes, reaction time 6 h): 37.5%
- Decomposition efficiency of genistin family in roasted soy flour (pH8.5, heat treatment of enzyme no, reaction time 0 h): 55.8
- Decomposition efficiency of genistin family in roasted soy flour (pH8.5, heat treatment of enzyme no, reaction time 1 h): 28.7
- Decomposition efficiency of genistin family in roasted soy flour (pH8.5, heat treatment of enzyme no, reaction time 3 h): 19.2
- Decomposition efficiency of genistin family in roasted soy flour (pH8.5, heat treatment of enzyme no, reaction time 6 h): 14.5
- Decomposition efficiency of genistin family in roasted soy flour (pH8.5, heat treatment of enzyme yes, reaction time 6 h): 59.5
- Decomposition efficiency of genistin family in concentrated soybean protein (pH8.6, heat treatment of enzyme: no, reaction time 0 h): 53.8%
- Decomposition efficiency of genistin family in concentrated soybean protein (pH8.6, heat treatment of enzyme: no, reaction time 1 h): 50.4%
- Decomposition efficiency of genistin family in concentrated soybean protein (pH8.6, heat treatment of enzyme: no, reaction time 3 h): 45.1%
- Decomposition efficiency of genistin family in concentrated soybean protein (pH8.6, heat treatment of enzyme: no, reaction time 6 h): 36.3%
- Decomposition efficiency of genistin family in concentrated soybean protein (pH8.6, heat treatment of enzyme: yes, reaction time 6 h): 56.2%
- Decomposition efficiency of genistin family in soymilk (pH11.6, heat treatment of enzyme: no, reaction time 0 h): 34.8%
- Decomposition efficiency of genistin family in soymilk (pH11.6, heat treatment of enzyme: no, reaction time 1 h): not detected
- Decomposition efficiency of genistin family in soymilk (pH11.6, heat treatment of enzyme: no, reaction time 3 h): not detected
- Decomposition efficiency of genistin family in soymilk (pH11.6, heat treatment of enzyme: no, reaction time 6 h): not detected
- Decomposition efficiency of genistin family in soymilk (pH11.6, heat treatment of enzyme: yes, reaction time 6 h): 41.3%
SMILES: O=c1c(-c2ccc(O)cc2)coc2cc(O[C@@H]3O[C@H](CO)[C@@H](O)[C@H](O)[C@H]3O)cc(O)c12 [genistin]
